Experiment [1] relates to blackgrass. Briefly: Test Example 4: herbicidal effect by soil treatment (Table 19, symbol J). It counts as in vivo, blackgrass (Alopecurus myosuroides). An outline of the steps: (§1)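 Applied as a water-diluted emulsion, the compound was sprayed onto soil covering newly sown seeds. Evaluation came three weeks after application, in a greenhouse held at 25° C. to 30° C.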
Experiment [2] has as its system velvetleaf. The experiment in a line: Test Example 5: herbicidal effect by foliage application, plastic box (Table 20, symbol M). The format is in vivo, velvetleaf (Abutilon theophrasti). Particulars: foliage application, 320 g/ha; for herbicidal effect grade, M: velvetleaf: three weeks after application. The gist of the method:
(§2)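 Sow seeds spot-wise in sterilized diluvial soil; cover with ~1.5 cm soil. Grow 14 days in greenhouse, 25° C. to 30° C. Spray foliage with emulsion diluted to predetermined amount. Rate effect after 3 weeks.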

Experiment [3] deals with oval-leafed pondweed. The experiment in a line: Test Example 2: herbicidal activity, application during weed generation under submerged conditions (Table 17, symbol C). The format is in vivo, oval-leafed pondweed (Monochoria vaginalis). Particulars: AAH 320 g/ha; application during weed generation, submerged conditions. An outline of the steps:
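Herbicide emulsion, diluted with water to the chosen amount, is applied onto 4 cm floodwater over alluvial soil where the weeds were co-sown and raised at 25–30° C. Application timing: 1–2 leaves. Assessment: three weeks afterwards.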

The test system of experiment [4] is chickweed. Briefly: Test Example 5: herbicidal effect by foliage application, plastic box (Table 20, symbol P). The format is in vivo, common chickweed (Stellaria media). Particulars: foliage application, 320 g/ha, three weeks after application. An outline of the steps: as §2
For experiment [5], the system named is oval-leafed pondweed. The experiment in a line: Test Example 1: herbicidal activity, application before weed generation under submerged conditions (Table 16, symbol C). The format is in vivo, oval-leafed pondweed (Monochoria vaginalis). Particulars: 320 g/ha applied herbicide. An outline of the steps: (§3)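 Emulsion formulation, water-diluted to set dose, was put onto the flooded surface (4 cm depth, alluvial soil) the same day weeds were sown and 2.5-leaf rice transplanted. After 3 weeks at 25-30 °C under glass, each species was rated 0 (≤5% kill) to 5 (≥90% kill).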

Experiment [6] concerns false cleavers. The experiment in a line: Test Example 4: herbicidal effect by soil treatment (Table 19, symbol Q). The format is in vivo, false cleavers (Galium spurium). An outline of the steps: as §1
Experiment [7] deals with false cleavers. The experiment in a line: Test Example 5: herbicidal effect by foliage application, plastic box (Table 20, symbol Q). The format is in vivo, false cleavers (Galium spurium). Particulars: foliage application, 320 g/ha; for herbicidal effect grade, Q: false cleavers: three weeks after application. The gist of the method:
as §2

In experiment [8] the test system is persian speedwell. The experiment in a line: Test Example 4: herbicidal effect by soil treatment (Table 19, symbol R). It counts as in vivo, Persian speedwell (Veronica persica). The gist of the method: as §1
Experiment [9] concerns Japanese bulrush. Briefly: Test Example 1: herbicidal activity, application before weed generation under submerged conditions (Table 16, symbol B). It counts as in vivo, Japanese bulrush (Schoenoplectus juncoides). Particulars: 320 g/ha applied herbicide. The gist of the method: as §3
Experiment [10] deals with Chinese sprangletop. Briefly: Test Example 3: herbicidal effect by foliage application, Wagner pot (Table 18, symbol D). It counts as in vivo, chinese sprangletop (Leptochloa chinensis). Particulars: 320 g/ha. The gist of the method:
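Plants were sown in alluvial soil held under 0.1–0.5 cm standing water and grown 14 days in a greenhouse at 25–30 °C. An emulsifiable formulation, water-diluted to the set dose, was then sprayed onto the foliage, and effects were scored three weeks later using previously defined criteria.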

The subject of experiment [11] is windgrass. The experiment in a line: Test Example 4: herbicidal effect by soil treatment (Table 19, symbol L). It counts as in vivo, windgrass (Apera spica-venti). The gist of the method:
as §1

For experiment [12], the system named is green foxtail. Briefly: Test Example 5: herbicidal effect by foliage application, plastic box (Table 20, symbol G). The format is in vivo, green foxtail (Setaria viridis). Particulars: foliage application, 320 g/ha; for herbicidal effect grade, G: green foxtail: three weeks after application. An outline of the steps: as §2
For experiment [13], the system named is late watergrass. Briefly: Test Example 1: herbicidal activity, application before weed generation under submerged conditions (Table 16, symbol A). Particulars: 320 g/ha applied herbicide. The format is in vivo, late watergrass (Echinochloa oryzicola). The gist of the method:
as §3

Setting [14] is: amount of applied herbicide 320 g/ha.

SMILES strings stand for the structures.

In the case of `CCCOc1ccccc1-c1sc2ccccc2c1-c1c(O)c(C)nn(C)c1=O` [1-015], in [1] (setting [14]), the “herbicidal effect rating, J: blackgrass” value was 4 (Herbicidal rate of 70% or more and less than 90%). In addition, the “herbicidal effect grade, M: velvetleaf” value in experiment [2] is 5 (Herbicidal rate of 90% or more (almost completely withered)). In addition, the “herbicidal effect rating, C: oval-leafed pondweed” value (from here on “herbicidal effect rating, C”) in experiment [3] was 2 (Herbicidal rate of 20% or more and less than 40%). The “herbicidal effect grade, P: chickweed” value in experiment [4] is recorded as 5 (Herbicidal rate of 90% or more (almost completely withered)). Moreover, in [5], the “Herbicidal effect on C: oval-leafed pondweed (grade 0-5)” value (from here on “Herbicidal effect on C”) is 3 (Herbicidal rate of 40% or more and less than 70%). Besides, the “herbicidal effect rating, Q: false cleavers” value (“herbicidal effect rating, Q” for short) in [6] (setting [14]) is 3 (Herbicidal rate of 40% or more and less than 70%). Besides, the “herbicidal effect grade, Q: false cleavers” value (from here on “herbicidal effect grade, Q”) in experiment [7] was 5 (Herbicidal rate of 90% or more (almost completely withered)). The “herbicidal effect rating, R: persian speedwell” value (from here on “herbicidal effect rating, R”) in experiment [8] (setting [14]) was 4 (Herbicidal rate of 70% or more and less than 90%). The “Herbicidal effect on B: Japanese bulrush (grade 0-5)” value (from here on “Herbicidal effect on B”) in experiment [9] is 3 (Herbicidal rate of 40% or more and less than 70%). For the same molecule, the “herbicidal effect on D (Chinese sprangletop), rating 0-5” value (“herbicidal effect on D” for short) in experiment [10] was 3 (Herbicidal rate of 40% or more and less than 70%). Also, in [11] (setting [14]), the “herbicidal effect rating, L: windgrass” value is on record as 5 (Herbicidal rate of 90% or more (almost completely withered)). In addition, the “herbicidal effect grade, G: green foxtail” value (“herbicidal effect grade, G” for short) in experiment [12] was 4 (Herbicidal rate of 70% or more and less than 90%). Besides, in [13], the “Herbicidal effect on A: late watergrass (grade 0-5)” value is 3 (Herbicidal rate of 40% or more and less than 70%).
As to `Cc1nn(C)c(=O)c(-c2c(-c3ccccc3OC(F)(F)F)sc3ccccc23)c1O` [1-030], the “herbicidal effect rating, J: blackgrass” value in [1] (setting [14]) was 1 (Herbicidal rate of 5% or more and less than 20%). The “herbicidal effect grade, M: velvetleaf” value in experiment [2] is listed as 5 (Herbicidal rate of 90% or more (almost completely withered)). Moreover, the “herbicidal effect rating, C” value in experiment [3] is 3 (Herbicidal rate of 40% or more and less than 70%). In [4], the “herbicidal effect grade, P: chickweed” value is 5 (Herbicidal rate of 90% or more (almost completely withered)). Besides, the “Herbicidal effect on C” value in experiment [5] was 4 (Herbicidal rate of 70% or more and less than 90%). In addition, the “herbicidal effect rating, Q” value in experiment [6] (setting [14]) is on record as 5 (Herbicidal rate of 90% or more (almost completely withered)). Besides, the “herbicidal effect grade, Q” value in [7] is on record as 5 (Herbicidal rate of 90% or more (almost completely withered)). In [8] (setting [14]), the “herbicidal effect rating, R” value is 5 (Herbicidal rate of 90% or more (almost completely withered)). Further, in experiment [9], the “Herbicidal effect on B” value is given as 5 (Herbicidal rate of 90% or more (almost completely withered)). The “herbicidal effect on D” value in [10] is 3 (Herbicidal rate of 40% or more and less than 70%). Besides, the “herbicidal effect rating, L: windgrass” value in experiment [11] (setting [14]) is recorded as 5 (Herbicidal rate of 90% or more (almost completely withered)). Besides, the “herbicidal effect grade, G” value in [12] is listed as 5 (Herbicidal rate of 90% or more (almost completely withered)). Besides, the “Herbicidal effect on A: late watergrass (grade 0-5)” value in experiment [13] is 2 (Herbicidal rate of 20% or more and less than 40%).
For `CCCC(=O)Oc1c(C)nn(C)c(=O)c1-c1c(-c2ccc(C(C)=NOC)cc2)sc2ccccc12` [1-044], the “herbicidal effect rating, J: blackgrass” value in experiment [1] (setting [14]) is given as 0 (Herbicidal rate of 5% or less (almost no effect)). Also, the “herbicidal effect grade, M: velvetleaf” value in experiment [2] is reported as 5 (Herbicidal rate of 90% or more (almost completely withered)). In addition, the “herbicidal effect rating, C” value in [3] is 1 (Herbicidal rate of 5% or more and less than 20%). Besides, in [4], the “herbicidal effect grade, P: chickweed” value was 5 (Herbicidal rate of 90% or more (almost completely withered)). In experiment [5], the “Herbicidal effect on C” value is recorded as 5 (Herbicidal rate of 90% or more (almost completely withered)). Further, in experiment [6] (setting [14]), the “herbicidal effect rating, Q” value is 4 (Herbicidal rate of 70% or more and less than 90%). The “herbicidal effect grade, Q” value in experiment [7] was 3 (Herbicidal rate of 40% or more and less than 70%). Moreover, in experiment [8] (setting [14]), the “herbicidal effect rating, R” value was 5 (Herbicidal rate of 90% or more (almost completely withered)). For the same molecule, in experiment [9], the “Herbicidal effect on B” value is 5 (Herbicidal rate of 90% or more (almost completely withered)). Besides, in experiment [10], the “herbicidal effect on D” value was 4 (Herbicidal rate of 70% or more and less than 90%). The “herbicidal effect rating, L: windgrass” value in [11] (setting [14]) is recorded as 0 (Herbicidal rate of 5% or less (almost no effect)). In addition, the “herbicidal effect grade, G” value in experiment [12] is given as 5 (Herbicidal rate of 90% or more (almost completely withered)). Moreover, the “Herbicidal effect on A: late watergrass (grade 0-5)” value in experiment [13] is reported as 5 (Herbicidal rate of 90% or more (almost completely withered)).
Consider `CCOc1cc(F)ccc1-c1sc2ccccc2c1-c1c(O)c(C)nn(C)c1=O` [1-061], for which, in experiment [1] (setting [14]), the “herbicidal effect rating, J: blackgrass” value was 5 (Herbicidal rate of 90% or more (almost completely withered)). Besides, the “herbicidal effect grade, M: velvetleaf” value in experiment [2] is 5 (Herbicidal rate of 90% or more (almost completely withered)). In experiment [3], the “herbicidal effect rating, C” value was 4 (Herbicidal rate of 70% or more and less than 90%). The “herbicidal effect grade, P: chickweed” value in [4] is 5 (Herbicidal rate of 90% or more (almost completely withered)). For the same molecule, in experiment [5], the “Herbicidal effect on C” value is 3 (Herbicidal rate of 40% or more and less than 70%). For the same molecule, in experiment [6] (setting [14]), the “herbicidal effect rating, Q” value is 4 (Herbicidal rate of 70% or more and less than 90%). For the same molecule, in experiment [7], the “herbicidal effect grade, Q” value is reported as 5 (Herbicidal rate of 90% or more (almost completely withered)). In addition, the “herbicidal effect rating, R” value in experiment [8] (setting [14]) is on record as 5 (Herbicidal rate of 90% or more (almost completely withered)). In addition, the “Herbicidal effect on B” value in experiment [9] was 3 (Herbicidal rate of 40% or more and less than 70%). Besides, the “herbicidal effect on D” value in experiment [10] is 4 (Herbicidal rate of 70% or more and less than 90%). In addition, the “herbicidal effect rating, L: windgrass” value in experiment [11] (setting [14]) is on record as 5 (Herbicidal rate of 90% or more (almost completely withered)). Moreover, the “herbicidal effect grade, G” value in experiment [12] is given as 5 (Herbicidal rate of 90% or more (almost completely withered)). Also, in [13], the “Herbicidal effect on A: late watergrass (grade 0-5)” value was 3 (Herbicidal rate of 40% or more and less than 70%).
On to `Cc1nn(C)c(=O)c(-c2c(-c3ccc(OC(C)C)cc3)sc3ccc(F)cc23)c1O` [2-034], for which, in [1] (320 g/ha), the “herbicidal effect rating, J: blackgrass” value was 1 (Herbicidal rate of 5% or more and less than 20%). Also, the “effect on velvetleaf (M)” value in [2] (3 weeks after application) was 5 (Herbicidal rate of 90% or more (almost completely withered)). The “herbicidal effect rating, C” value in experiment [3] is 3 (Herbicidal rate of 40% or more and less than 70%). In addition, the “Herbicidal effect on C” value in [5] was 2 (Herbicidal rate of 20% or more and less than 40%). Also, the “herbicidal effect rating, Q” value in experiment [6] (320 g/ha) is recorded as 0 (Herbicidal rate of 5% or less (almost no effect)). Besides, in experiment [7] (3 weeks after application), the “effect on false cleavers (Q)” value is 4 (Herbicidal rate of 70% or more and less than 90%). For the same molecule, the “herbicidal effect rating, R” value in experiment [8] (320 g/ha) is 4 (Herbicidal rate of 70% or more and less than 90%). In addition, the “Herbicidal effect on B” value in experiment [9] is 4 (Herbicidal rate of 70% or more and less than 90%). The “herbicidal effect on D” value in [10] is recorded as 0 (Herbicidal rate of 5% or less (almost no effect)). For the same molecule, the “herbicidal effect rating, L: windgrass” value in experiment [11] (320 g/ha) is given as 0 (Herbicidal rate of 5% or less (almost no effect)). The “effect on green foxtail (G)” value in experiment [12] (3 weeks after application) is 5 (Herbicidal rate of 90% or more (almost completely withered)). Further, the “Herbicidal effect on A: late watergrass (grade 0-5)” value in [13] was 3 (Herbicidal rate of 40% or more and less than 70%).

The values above are taken from patent US20230085307A1, “PYRIDAZINONE COMPOUND AND HERBICIDE” (NISSAN CHEMICAL CORPORATION, priority 2019, published 2023).
